{"source": "paper PMC10269622", "about": "“Blapstin, a Diapause-Specific Peptide-Like Peptide from the Chinese Medicinal Beetle Blaps rhynchopetera, Has Antifungal Function” (Microbiology Spectrum, 2023)", "assay_in_all_cases": "MIC, broth double dilution", "key": {"[1]": {"system": "C. albicans 0063", "assay_type": "cell-based, Candida albicans", "details": "37°C, 16 h, absorbance at 600 nm, mean of three independent experiments", "description": "(§1) The standard strain of C. albicans (ATCC 10231), three clinically isolated antibiotic-resistant strains (C. albicans 0065, C. albicans 0063, and C. albicans 6), E. coli (ATCC 8739), and S. aureus (ATCC 6538) were obtained from Kunming Medical University. T. rubrum was purchased from BeNa Culture Collection (BNCC, CAS no. 340195). Different strains of C. albicans, E. coli, and S. aureus were cultured with shaking at 37°C in YM medium and Luria-Bertani (LB) medium. T. rubrum was cultured at 28°C in potato dextrose agar (PDA) medium according to the manufacturer’s instructions.\n(§2) According to CLSI protocols, the MIC is determined as a point where there is “zero detectable growth,” The MIC of blapstin against different fungal strains was determined by use of the double dilution method, namely, broth dilution determination. In brief, the different strains were grown in their corresponding media at 28°C or 37°C until they reached the exponential growth phase. Colistin E and fluconazole were used as positive controls. Blapstin was diluted to various concentrations in sterile saline: 100 μL of sterile saline was added to the second well of a sterile 96-well plate, and then 100 μL of blapstin was added to the first and second wells. The solution from the second well was double-diluted with sterile saline until the 11th well, from which 100 μL was removed. In the 12th well, no blapstin was added, and sterile saline was used as a negative control. Afterward, 100 μL of the diluted microbial solution was added to each well, followed by incubation at 37°C for 16 h. To assess the antifungal activity of blapstin against the T. rubrum strain, the spore germination rates were first determined microscopically with a hemocytometer. T. rubrum was diluted with normal saline to 1 × 10^5 CFU/mL and then incubated with various concentrations of blapstin at 28°C for 16 h. The absorbance at 600 nm was measured by a microplate reader (Epoch Etock; Biotek, USA) to estimate the inhibition of bacteria and fungi by blapstin."}, "[2]": {"system": "C. albicans 6", "assay_type": "cell-based, Candida albicans", "details": "37°C, 16 h, absorbance at 600 nm, mean of three independent experiments", "description": "as §1, §2"}, "[3]": {"system": "C. albicans 0065", "assay_type": "cell-based, Candida albicans", "details": "37°C, 16 h, absorbance at 600 nm, mean of three independent experiments", "description": "as §1, §2"}, "[4]": {"system": "Candida albicans ATCC 10231", "assay_type": "cell-based", "details": "96-well plate, 37°C, 16 h, absorbance at 600 nm, mean of three independent experiments", "description": "as §1, §2"}, "[5]": {"system": "Staphylococcus aureus ATCC 6538", "assay_type": "cell-based", "details": "96-well plate, 37°C, 16 h, absorbance at 600 nm, mean of three independent experiments, ND = no bacteriostatic activity", "description": "as §1, §2"}, "[6]": {"system": "Escherichia coli ATCC 8739", "assay_type": "cell-based", "details": "96-well plate, 37°C, 16 h, absorbance at 600 nm, mean of three independent experiments, ND = no bacteriostatic activity", "description": "as §1, §2"}, "[7]": {"system": "Trichophyton rubrum", "assay_type": "cell-based", "details": "1 × 10^5 CFU/mL, 28°C, 16 h, absorbance at 600 nm, mean of three independent experiments, ND = no bacteriostatic activity", "description": "as §1, §2"}, "[8]": {"details": "clinically isolated antibiotic-resistant strain"}}}
{"compound": "Colistin E", "values": [{"measurement": "MIC", "setting": "[1]; [8]", "result": 5.4, "unit": "µM"}, {"measurement": "MIC", "setting": "[2]; [8]", "result": 1.1, "unit": "µM"}, {"measurement": "MIC", "setting": "[3]; [8]", "result": 5.4, "unit": "µM"}, {"measurement": "MIC", "setting": "[4]; standard strain", "result": 22, "unit": "µM"}, {"measurement": "MIC", "setting": "[5]", "result": 81.1, "unit": "µM"}, {"measurement": "MIC", "setting": "[6]", "result": 3, "unit": "µM"}]}
{"compound": "OC(Cn1cncn1)(Cn1cncn1)c1ccc(F)cc1F", "note": "[Fluconazole]", "values": [{"measurement": "MIC", "setting": "[1]; Candida albicans, 0063, clinically isolated antibiotic-resistant strain", "result": 61, "unit": "µM"}, {"measurement": "MIC", "setting": "[2]; Candida albicans, 6, clinically isolated antibiotic-resistant strain", "result": 61, "unit": "µM"}, {"measurement": "MIC", "setting": "[3]; Candida albicans, 0065, clinically isolated antibiotic-resistant strain", "result": 70, "unit": "µM"}, {"measurement": "MIC", "setting": "[4]; Candida albicans, ATCC10231, standard strain", "result": 15, "unit": "µM"}, {"measurement": "MIC", "setting": "[7]", "result": 12.2, "unit": "µM"}]}
